# Reference: patent US20060009433A1, “Neuroprotective spirostenol pharmaceutical compositions” (priority 2003, published 2006)
# Columns and labels:
# [1] = biological target: Aβ1-42 (Homo sapiens, UniProt P05067); test: Aβ aggregation assay (SDS-PAGE, immunoblot); assay type: biochemical; settings: 50 μM Aβ1-42; 24 hours at 37° C.
# Experimental: At the end of the incubation, proteins were separated by SDS-PAGE on 4-20% gradient acrylamide-bis-acrylamide gel at 125V for 2 hours. Proteins were visualized by coomassie blue staining. Aβ species were identified by immunoblot analysis. Yao, Z. et al., Brain Res. (2001).
# The ability of 22R-hydroxycholesterol to alter Aβ aggregation was also examined. […] At the end of the incubation proteins were separated by SDS-PAGE and visualized by coomassie blue (FIG. 6A). Aβ species formed were identified by immunoblotting using an anti-Aβ polyclonal antiserum (FIG. 6B). Aβ aggregation can be seen on the top of the gel and it is absent in control-media lane. […] A 100 kDa band recognized by the Aβ polyclonal antiserum used in all samples, including control-media, probably reflects non-specific binding of the antiserum.
# [2] = biological target: Aβ25-35 (Homo sapiens, UniProt P05067); test: CPBBA, Aβ25-35; assay type: binding
# Experimental: At the end of the incubation time, samples were separated by 1.5% agarose (Type I-B) gel electrophoresis and transferred to nitrocellulose membrane (Schleicher & Schuell, Keene, N.H.) in 10×SSC buffer. The membrane was exposed to tritium-sensitive screen and analyzed by phosphoimaging using the Cyclone Storage phosphor system (Packard BioScience, Meridien, Conn.). Image-densitometric analysis was performed using the OptiQuant software (Packard). […] Low molecular weight unincorporated 22i-hydroxycholesterol is separated and eliminated during electrophoresis.
# Aβ1-42, sequence (P05067 672-713): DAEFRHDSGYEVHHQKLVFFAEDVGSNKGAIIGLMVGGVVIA
compound,measurement,setting,value
"CC(C)CC[C@@H](O)[C@@H](C)[C@H]1CC[C@H]2[C@@H]3CC=C4C[C@@H](O)CC[C@]4(C)[C@H]3CC[C@]12C [SP222, 22R-hydroxycholesterol]",effect on Aβ aggregation,[1],did not affect Aβ aggregation
same,binding to Aβ25-35,[2],did not bind
